Measurements as given in patent US10961231B2, “NTCP inhibitors” (National Institute of Biological Sciences, Beijing, priority 2018, dated 2021).

Biological target: T1, NTCP (Homo sapiens, UniProt Q14973)
T1 sequence (Q14973 1-349): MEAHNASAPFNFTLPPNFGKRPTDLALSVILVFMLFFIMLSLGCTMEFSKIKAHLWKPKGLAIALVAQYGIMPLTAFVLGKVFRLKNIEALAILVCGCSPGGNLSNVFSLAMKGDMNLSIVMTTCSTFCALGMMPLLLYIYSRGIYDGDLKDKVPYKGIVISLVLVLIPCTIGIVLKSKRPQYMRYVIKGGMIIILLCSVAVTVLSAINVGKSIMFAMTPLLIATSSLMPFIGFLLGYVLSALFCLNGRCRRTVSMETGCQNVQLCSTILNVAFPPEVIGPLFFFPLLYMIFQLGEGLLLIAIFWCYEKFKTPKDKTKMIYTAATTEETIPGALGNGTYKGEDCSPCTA
Assay: [3H]-TCA uptake assay (NTCP inhibition)
Type: cell-based
Procedure, shortened: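 PTH and HepG2-NTCP cells kept 24 h in PMM to induce NTCP, then exposed 2 h to test compounds or DMSO. Uptake of 1 μM [3H]-taurocholate in Na+ Ringer's buffer (145 mM Na) ran 15 min at 37° C. Cells washed, lysed in 1% Triton X-100, and radioactivity counted by liquid scintillation.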

[1] = IC50, given as a range, marked * (asterisk not explained)
[2] = given as a range, assay not given
[3] = given as a range, marked * (asterisk not explained)
[4] = IC50, given as a range, assay not given

## CCC1NC(=O)C(C2OC(SCc3ccccc3OC)CC2C)N(C)C(=O)C(C(C)C)N(C)C(=O)C(CC(C)C)N(C)C(=O)C(CC(C)C)N(C)C(=O)C(C)NC(=O)C(C)NC(=O)C(CC(C)C)N(C)C(=O)C(C(C)C)NC(=O)C(CC(C)C)N(C)C(=O)CN(C)C1=O (stereo not drawn) [Compound 82A-s]
[1]
  IC50: 1000 to 100000 nM

## CCC1NC(=O)C(C2OC(SCc3cccc(Cl)c3OC)CC2C)N(C)C(=O)C(C(C)C)N(C)C(=O)C(CC(C)C)N(C)C(=O)C(CC(C)C)N(C)C(=O)C(C)NC(=O)C(C)NC(=O)C(CC(C)C)N(C)C(=O)C(C(C)C)NC(=O)C(CC(C)C)N(C)C(=O)CN(C)C1=O (stereo not drawn) [Compound 88A-s]
[1]
  IC50: 1000 to 100000 nM

## CCC1NC(=O)C(C2OC(Oc3cccc(OC)c3)CC2C)N(C)C(=O)C(C(C)C)N(C)C(=O)C(CC(C)C)N(C)C(=O)C(CC(C)C)N(C)C(=O)C(C)NC(=O)C(C)NC(=O)C(CC(C)C)N(C)C(=O)C(C(C)C)NC(=O)C(CC(C)C)N(C)C(=O)CN(C)C1=O (stereo not drawn) [Compound 28A-o]
[1]
  IC50: 1000 to 100000 nM

## CCC1NC(=O)C(C2OC(OC(C)c3ccc(Cl)c(Cl)c3)CC2C)N(C)C(=O)C(C(C)C)N(C)C(=O)C(CC(C)C)N(C)C(=O)C(CC(C)C)N(C)C(=O)C(C)NC(=O)C(C)NC(=O)C(CC(C)C)N(C)C(=O)C(C(C)C)NC(=O)C(CC(C)C)N(C)C(=O)CN(C)C1=O (single isomer, unassigned) [Compound 96A]
[2]
  IC50: 1 to 1000 nM

## CCC1NC(=O)C(C2OC(Sc3cccc(OCc4cccs4)c3)CC2C)N(C)C(=O)C(C(C)C)N(C)C(=O)C(CC(C)C)N(C)C(=O)C(CC(C)C)N(C)C(=O)C(C)NC(=O)C(C)NC(=O)C(CC(C)C)N(C)C(=O)C(C(C)C)NC(=O)C(CC(C)C)N(C)C(=O)CN(C)C1=O (stereo not drawn) [Compound 69]
[1]
  IC50: 1000 to 100000 nM

## CCC1NC(=O)C(C2OC(SCc3cc(Cl)c(F)cc3Cl)CC2C)N(C)C(=O)C(C(C)C)N(C)C(=O)C(CC(C)C)N(C)C(=O)C(CC(C)C)N(C)C(=O)C(C)NC(=O)C(C)NC(=O)C(CC(C)C)N(C)C(=O)C(C(C)C)NC(=O)C(CC(C)C)N(C)C(=O)CN(C)C1=O (stereo not drawn) [Compound 103-s]
[1]
  IC50: 1000 to 100000 nM

## CCC1NC(=O)C(C2OC(Sc3cc(OCCOC)cc(OCc4cccs4)c3)CC2C)N(C)C(=O)C(C(C)C)N(C)C(=O)C(CC(C)C)N(C)C(=O)C(CC(C)C)N(C)C(=O)C(C)NC(=O)C(C)NC(=O)C(CC(C)C)N(C)C(=O)C(C(C)C)NC(=O)C(CC(C)C)N(C)C(=O)CN(C)C1=O (stereo not drawn) [Compound 56]
[3]
  IC50: 1000 to 100000 nM

## CCC1NC(=O)C(C2OC(Oc3ccc(OS(C)(=O)=O)cc3)CC2C)N(C)C(=O)C(C(C)C)N(C)C(=O)C(CC(C)C)N(C)C(=O)C(CC(C)C)N(C)C(=O)C(C)NC(=O)C(C)NC(=O)C(CC(C)C)N(C)C(=O)C(C(C)C)NC(=O)C(CC(C)C)N(C)C(=O)CN(C)C1=O (stereo not drawn) [Compound 5A-o]
[1]
  IC50: 1000 to 100000 nM

## CCC1NC(=O)C(C2OC(Sc3ccc(Cl)c(OCC4CCOCC4)c3)CC2C)N(C)C(=O)C(C(C)C)N(C)C(=O)C(CC(C)C)N(C)C(=O)C(CC(C)C)N(C)C(=O)C(C)NC(=O)C(C)NC(=O)C(CC(C)C)N(C)C(=O)C(C(C)C)NC(=O)C(CC(C)C)N(C)C(=O)CN(C)C1=O [Compound 43A, [2-((2R,3R)-5-(4-chloro-3-((tetrahydro-2H-pyran-4-yl)methoxy)phenylthio)-3-methyltetrahydrofuran-2-yl)-2-(methylamino)acetic acid]^1-cyclosporin A]
[2]
  IC50: 1 to 1000 nM

## CCCN(C)c1cccc(SC2CC(C)C(C3C(=O)NC(CC)C(=O)N(C)CC(=O)N(C)C(CC(C)C)C(=O)NC(C(C)C)C(=O)N(C)C(CC(C)C)C(=O)NC(C)C(=O)NC(C)C(=O)N(C)C(CC(C)C)C(=O)N(C)C(CC(C)C)C(=O)N(C)C(C(C)C)C(=O)N3C)O2)c1 [Compound 50A, [2-((2R,3R)-3-methyl-5-(3-(methyl(propyl)amino)phenylthio)tetrahydrofuran-2-yl)-2-(methylamino)acetic acid]^1-cyclosporin A]
[2]
  IC50: 1 to 1000 nM

## CCC1NC(=O)C(C2OC(OCc3ccc(N4CCOCC4)cc3)CC2C)N(C)C(=O)C(C(C)C)N(C)C(=O)C(CC(C)C)N(C)C(=O)C(CC(C)C)N(C)C(=O)C(C)NC(=O)C(C)NC(=O)C(CC(C)C)N(C)C(=O)C(C(C)C)NC(=O)C(CC(C)C)N(C)C(=O)CN(C)C1=O [Compound 99A, [2-((2R,3R)-3-methyl-5-(4-morpholinobenzyloxy)tetrahydrofuran-2-yl)-2-(methylamino)acetic acid]^1-cyclosporin A]
[4]
  IC50: 1000 to 10000 nM

## CCC1NC(=O)C(C2OC(OCc3cccc(S(=O)(=O)NCC(C)C)c3)CC2C)N(C)C(=O)C(C(C)C)N(C)C(=O)C(CC(C)C)N(C)C(=O)C(CC(C)C)N(C)C(=O)C(C)NC(=O)C(C)NC(=O)C(CC(C)C)N(C)C(=O)C(C(C)C)NC(=O)C(CC(C)C)N(C)C(=O)CN(C)C1=O [Compound 76A, [2-((2R,3R)-5-(3-(N-isobutylsulfamoyl)benzyloxy)-3-methyltetrahydrofuran-2-yl)-2-(methylamino)acetic acid]^1-cyclosporin A]
[4]
  IC50: 1000 to 10000 nM

## CCC1NC(=O)C(C2OC(OCc3ccc(OC)cc3)CC2C)N(C)C(=O)C(C(C)C)N(C)C(=O)C(CC(C)C)N(C)C(=O)C(CC(C)C)N(C)C(=O)C(C)NC(=O)C(C)NC(=O)C(CC(C)C)N(C)C(=O)C(C(C)C)NC(=O)C(CC(C)C)N(C)C(=O)CN(C)C1=O [Compound 83A, [2-((2R,3R)-5-(4-methoxybenzyloxy)-3-methyltetrahydrofuran-2-yl)-2-(methylamino)acetic acid]^1-cyclosporin A]
[2]
  IC50: 1 to 1000 nM

## CCC1NC(=O)C(C2OC(Oc3cccc(OCc4ccc(F)cc4Cl)c3)CC2C)N(C)C(=O)C(C(C)C)N(C)C(=O)C(CC(C)C)N(C)C(=O)C(CC(C)C)N(C)C(=O)C(C)NC(=O)C(C)NC(=O)C(CC(C)C)N(C)C(=O)C(C(C)C)NC(=O)C(CC(C)C)N(C)C(=O)CN(C)C1=O (stereo not drawn) [Compound 23A-o]
[3]
  IC50: 1000 to 100000 nM

## CCC1NC(=O)C(C2OC(Oc3cccc(OCc4ccc(-n5cccn5)cc4)c3)CC2C)N(C)C(=O)C(C(C)C)N(C)C(=O)C(CC(C)C)N(C)C(=O)C(CC(C)C)N(C)C(=O)C(C)NC(=O)C(C)NC(=O)C(CC(C)C)N(C)C(=O)C(C(C)C)NC(=O)C(CC(C)C)N(C)C(=O)CN(C)C1=O (stereo not drawn) [Compound 17A-o]
[3]
  IC50: 1000 to 100000 nM

## CCOc1cc(OC2CC(C)C(C3C(=O)NC(CC)C(=O)N(C)CC(=O)N(C)C(CC(C)C)C(=O)NC(C(C)C)C(=O)N(C)C(CC(C)C)C(=O)NC(C)C(=O)NC(C)C(=O)N(C)C(CC(C)C)C(=O)N(C)C(CC(C)C)C(=O)N(C)C(C(C)C)C(=O)N3C)O2)ccc1Cl (stereo not drawn) [Compound 41A-o]
[1]
  IC50: 1000 to 100000 nM

## CCC1NC(=O)C(C2OC(Sc3ccc(Cl)c(OCCO)c3)CC2C)N(C)C(=O)C(C(C)C)N(C)C(=O)C(CC(C)C)N(C)C(=O)C(CC(C)C)N(C)C(=O)C(C)NC(=O)C(C)NC(=O)C(CC(C)C)N(C)C(=O)C(C(C)C)NC(=O)C(CC(C)C)N(C)C(=O)CN(C)C1=O [Compound 46A, [2-((2R,3R)-5-(4-chloro-3-(2-hydroxyethoxy)phenylthio)-3-methyltetrahydrofuran-2-yl)-2-(methylamino)acetic acid]^1-cyclosporin A]
[2]
  IC50: 1 to 1000 nM

## CCC1NC(=O)C(C2OC(Sc3cc(OCCOC)cc(OCC4CCOCC4)c3)CC2C)N(C)C(=O)C(C(C)C)N(C)C(=O)C(CC(C)C)N(C)C(=O)C(CC(C)C)N(C)C(=O)C(C)NC(=O)C(C)NC(=O)C(CC(C)C)N(C)C(=O)C(C(C)C)NC(=O)C(CC(C)C)N(C)C(=O)CN(C)C1=O (stereo not drawn) [Compound 55]
[3]
  IC50: 1000 to 100000 nM

## CCC1NC(=O)C(C2OC(OCc3c(Cl)cccc3Cl)CC2C)N(C)C(=O)C(C(C)C)N(C)C(=O)C(CC(C)C)N(C)C(=O)C(CC(C)C)N(C)C(=O)C(C)NC(=O)C(C)NC(=O)C(CC(C)C)N(C)C(=O)C(C(C)C)NC(=O)C(CC(C)C)N(C)C(=O)CN(C)C1=O (single isomer, unassigned) [Compound 90B]
[2]
  IC50: 1 to 1000 nM

## CCC1NC(=O)C(C2OC(OCc3cccc(OC)c3)CC2C)N(C)C(=O)C(C(C)C)N(C)C(=O)C(CC(C)C)N(C)C(=O)C(CC(C)C)N(C)C(=O)C(C)NC(=O)C(C)NC(=O)C(CC(C)C)N(C)C(=O)C(C(C)C)NC(=O)C(CC(C)C)N(C)C(=O)CN(C)C1=O [Compound 81A, [2-((2R,3R)-5-(3-methoxybenzyloxy)-3-methyltetrahydrofuran-2-yl)-2-(methylamino)acetic acid]^1-cyclosporin A]
[2]
  IC50: 1 to 1000 nM

## CCC1NC(=O)C(C2OC(Oc3cccc(OCc4ccccn4)c3)CC2C)N(C)C(=O)C(C(C)C)N(C)C(=O)C(CC(C)C)N(C)C(=O)C(CC(C)C)N(C)C(=O)C(C)NC(=O)C(C)NC(=O)C(CC(C)C)N(C)C(=O)C(C(C)C)NC(=O)C(CC(C)C)N(C)C(=O)CN(C)C1=O (stereo not drawn) [Compound 52A-o]
[1]
  IC50: 1000 to 100000 nM

## CCC1NC(=O)C(C2OC(Oc3cccc(OCC4CCN(C)CC4)c3)CC2C)N(C)C(=O)C(C(C)C)N(C)C(=O)C(CC(C)C)N(C)C(=O)C(CC(C)C)N(C)C(=O)C(C)NC(=O)C(C)NC(=O)C(CC(C)C)N(C)C(=O)C(C(C)C)NC(=O)C(CC(C)C)N(C)C(=O)CN(C)C1=O (stereo not drawn) [Compound 72-o]
[1]
  IC50: 1000 to 100000 nM

## CCC1NC(=O)C(C2OC(Oc3cccc(N(C)Cc4ccccc4)c3)CC2C)N(C)C(=O)C(C(C)C)N(C)C(=O)C(CC(C)C)N(C)C(=O)C(CC(C)C)N(C)C(=O)C(C)NC(=O)C(C)NC(=O)C(CC(C)C)N(C)C(=O)C(C(C)C)NC(=O)C(CC(C)C)N(C)C(=O)CN(C)C1=O (stereo not drawn) [Compound 68-o]
[1]
  IC50: 1000 to 100000 nM

## CCC1NC(=O)C(C2OC(Oc3cc(Cl)cc(OC)c3)CC2C)N(C)C(=O)C(C(C)C)N(C)C(=O)C(CC(C)C)N(C)C(=O)C(CC(C)C)N(C)C(=O)C(C)NC(=O)C(C)NC(=O)C(CC(C)C)N(C)C(=O)C(C(C)C)NC(=O)C(CC(C)C)N(C)C(=O)CN(C)C1=O (stereo not drawn) [Compound 59A-o]
[1]
  IC50: 1000 to 100000 nM
